Measured values published in patent publication US11370774B2, “Substituted benzofuran, benzopyrrole, benzothiophene, and structurally related complement inhibitors” (BioCryst Pharmaceuticals, Inc., priority 2018, dated 2022).

Each compound was assayed against Factor D (Homo sapiens (Human), UniProt P00746) (assay: Factor D esterolytic assay (Z-Lys-SBzl substrate, DTNB, 405 nm)). Settings: Z-Lys-SBzl 1.29 mM, pH 7.5, 10% DMSO, tested a minimum of three times, read-out: Measured Ki (IC50) Value for Compounds: IC50.
Assay type: biochemical
Summary of the method: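 Thioester hydrolysis (Z-Lys-SBzl, 1.29 mM) by human Factor D ([…]) detected through DTNB color at 405 nm over 600 sec, minus 690 nm background. Buffer: 100 mM HEPES pH 7.5, 500 mM NaCl, 10% DMSO; optional room-temperature preincubation before substrate. IC50 derived from percent rate inhibition; at least three runs.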

Sequence of Factor D (P00746 26-253): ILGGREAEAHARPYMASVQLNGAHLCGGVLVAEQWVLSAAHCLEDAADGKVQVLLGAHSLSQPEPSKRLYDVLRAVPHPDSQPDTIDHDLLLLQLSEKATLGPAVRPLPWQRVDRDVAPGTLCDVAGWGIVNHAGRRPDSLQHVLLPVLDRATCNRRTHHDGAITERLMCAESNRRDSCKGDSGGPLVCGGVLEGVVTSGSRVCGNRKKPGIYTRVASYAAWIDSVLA

Compound	IC50 [nM]
NCc1cccc(-c2cc(COc3ccc(F)cc3CC(=O)O)cc3c(C(F)(F)F)coc23)c1 [Compound 500c, 2-(2-((7-(3-(aminomethyl)phenyl)-3-(trifluoromethyl)benzofuran-5-yl)methoxy)-5-fluorophenyl)acetic acid]	< 1000
Cc1cc2cc(COc3ccccc3CC(=O)O)cc(-c3ccnc(CN)c3F)c2o1 [Compound 113c, 2-(2-((7-(2-(aminomethyl)-3-fluoropyridin-4-yl)-2-methylbenzofuran-5-yl)methoxy)phenyl)acetic acid]	< 1000
Cn1ncc2c(-c3cccc(CN)c3F)cc(COc3ccccc3CC(=O)O)cc21 [Compound 128g, 2-(2-((4-(3-(aminomethyl)-2-fluorophenyl)-1-methyl-1H-indazol-6-yl)methoxy)phenyl)acetic acid]	< 1000
COc1ccc(NCc2cc3cc(COc4ccccc4CC(=O)O)cc(-c4cccc(CN)c4)c3o2)cc1 [Compound 280c, 2-(2-((7-(3-(aminomethyl)phenyl)-2-(((4-methoxyphenyl)amino)methyl)benzofuran-5-yl)methoxy)phenyl)acetic acid]	< 1000
COc1cccc(CC(=O)O)c1OCc1cc(-c2cccc(CN)c2)c2occc2c1 [Compound 476f, 2-(2-((7-(3-(aminomethyl)phenyl)benzofuran-5-yl)methoxy)-3-methoxyphenyl)acetic acid]	< 1000
NCc1ccc(CC(=O)O)c(OCc2cc(-c3cccc(C(N)CF)c3)c3occc3c2)c1 (single isomer, unassigned; (+)) [Compound 410d, (+)-2-(2-((7-(3-(1-amino-2-fluoroethyl)phenyl)benzofuran-5-yl)methoxy)-4-(aminomethyl)phenyl)acetic acid]	< 1000
COCc1cc2cc(COc3cc(C(N)=O)ccc3CC(=O)O)cc(-c3cccc(CN)c3F)c2o1 [Compound 439c, 2-(2-((7-(3-(aminomethyl)-2-fluorophenyl)-2-(methoxymethyl)benzofuran-5-yl)methoxy)-4-carbamoylphenyl)acetic acid]	< 1000
CC(=O)Nc1ccc(CC(=O)O)c(OCc2cc(-c3cccc(C(N)CF)c3)c3occc3c2)c1 (single isomer, unassigned; (+)) [Compound 434c, (+)-2-(4-acetamido-2-((7-(3-(1-amino-2-fluoroethyl)phenyl)benzofuran-5-yl)methoxy)phenyl)acetic acid]	< 1000
CC(=O)c1ccc(CC(=O)O)c(OCc2cc(-c3ccnc(CN)c3F)c3occc3c2)c1 [Compound 505d, 2-(4-acetyl-2-((7-(2-(aminomethyl)-3-fluoropyridin-4-yl)benzofuran-5-yl)methoxy)phenyl)acetic acid]	< 1000
CNC(=O)c1cc2cc(COc3ccccc3CC(=O)O)cc(-c3cccc(CN)c3)c2o1 [Compound 289d, 2-(2-((7-(3-(aminomethyl)phenyl)-2-(methylcarbamoyl)benzofuran-5-yl)methoxy)phenyl)acetic acid]	< 1000
NCc1cccc(-c2nc(COc3ccccc3CC(=O)O)nn3cccc23)c1 [Compound 8e, 2-(2-((4-(3-(aminomethyl)phenyl)pyrrolo[2,1-f][1,2,4]triazin-2-yl)methoxy)phenyl)acetic acid]	< 1000
CC(=O)Nc1ccc(CC(=O)O)c(OCc2cc(-c3cccc(CN)c3)c3occc3c2)c1 [Compound 224c, 2-(4-acetamido-2-((7-(3-(aminomethyl)phenyl)benzofuran-5-yl)methoxy)phenyl)acetic acid]	< 1000
CC(C)Cc1cc2cc(COc3ccccc3CC(=O)O)cc(-c3cccc(CN)c3)c2o1 [Compound 201b, 2-(2-((7-(3-(aminomethyl)phenyl)-2-isobutylbenzofuran-5-yl)methoxy)phenyl)acetic acid]	< 1000
C[C@@H](N)c1cccc(-c2nc(C(=O)Nc3ccccc3CC(=O)O)c3cccn3n2)c1 [Compound 4e, (R)-2-(2-(2-(3-(1-aminoethyl)phenyl)pyrrolo[2,1-f][1,2,4]triazine-4-carboxamido)phenyl)acetic acid]	< 1000
Cc1ccc2c(C(=O)Nc3ccccc3CC(=O)O)nc(-c3cccc(CN)c3F)nn12 [Compound 161e, 2-(2-(2-(3-(aminomethyl)-2-fluorophenyl)-7-methylpyrrolo[2,1-f][1,2,4]triazine-4-carboxamido)phenyl)acetic acid]	< 1000
Nc1ccc(-c2cc(COc3ccccc3CC(=O)O)cc3ccoc23)cc1 [Compound 183c, 2-(2-((7-(4-aminophenyl)benzofuran-5-yl)methoxy)phenyl)acetic acid]	> 10000
CC(C)n1ccc2c(-c3ccnc(CN)c3)cc(COc3ccccc3CC(=O)O)cc21 [Compound 118c, 2-(2-((4-(2-(aminomethyl)pyridin-4-yl)-1-isopropyl-1H-indol-6-yl)methoxy)phenyl)acetic acid]	< 1000
NCc1cccc(-c2nc(C(=O)Nc3ccccc3CC(=O)O)nc3c2ccn3CC2CC2)c1 [Compound 16i, 2-(2-(4-(3-(aminomethyl)phenyl)-7-(cyclopropylmethyl)-7H-pyrrolo[2,3-d]pyrimidine-2-carboxamido)phenyl)acetic acid]	< 1000

Compound	IC50 [nM]
NCc1cccc(-c2cc(COc3cc(Br)ccc3CC(=O)O)cc3ccoc23)c1 [Compound 182d, 2-(2-((7-(3-(aminomethyl)phenyl)benzofuran-5-yl)methoxy)-4-bromophenyl)acetic acid]	< 1000
NCc1ccc(-c2cc(COc3ccccc3CC(=O)O)cc3ccoc23)cc1 [Compound 193c, 2-(2-((7-(4-(aminomethyl)phenyl)benzofuran-5-yl)methoxy)phenyl)acetic acid]	1000 to 10000
NCc1cccc(-c2nc(C(=O)Nc3ccccc3CC(=O)O)nc3sccc23)c1 [Compound 32h, 2-(2-(4-(3-(aminomethyl)phenyl)thieno[2,3-d]pyrimidine-2-carboxamido)phenyl)acetic acid]	< 1000
COc1cccc(CC(=O)O)c1OCc1cc(-c2ccnc(CN)c2F)c2occc2c1 [Compound 527b, 2-(2-((7-(2-(aminomethyl)-3-fluoropyridin-4-yl)benzofuran-5-yl)methoxy)-3-methoxyphenyl)acetic acid]	< 1000
NCc1cc(-c2cc(COc3ccccc3CC(=O)O)cc3c2ccn3CC2CC2)ccn1 [Compound 155c, 2-(2-((4-(2-(aminomethyl)pyridin-4-yl)-1-(cyclopropylmethyl)-1H-indol-6-yl)methoxy)phenyl)acetic acid]	< 1000
NCc1cccc(-c2cc(COc3ccccc3C(NC(=O)[C@@H]3C[C@H]3c3ccccc3)C(=O)O)cc3ccoc23)c1 (stereo partly drawn) [Compound 234f, 2-(2-((7-(3-(aminomethyl)phenyl)benzofuran-5-yl)methoxy)phenyl)-2-((1R,2R)-2-phenylcyclopropanecarboxamido)acetic acid]	< 1000
NCc1cccc(-c2cc(COc3ccncc3CC(=O)O)cc3ccoc23)c1 [Compound 163d, 2-(4-((7-(3-(aminomethyl)phenyl)benzofuran-5-yl)methoxy)pyridin-3-yl)acetic acid]	< 1000
NCc1cccc(-c2cc(COc3ccccc3CC(=O)O)cc3cc(COc4ccccc4)oc23)c1 [Compound 457c, 2-(2-((7-(3-(aminomethyl)phenyl)-2-(phenoxymethyl)benzofuran-5-yl)methoxy)phenyl)acetic acid]	< 1000
NCc1cccc(-c2cc(COc3ccccc3CC(=O)O)cc3cc(-c4ccccc4)oc23)c1 [Compound 374f, 2-(2-((7-(3-(aminomethyl)phenyl)-2-phenylbenzofuran-5-yl)methoxy)phenyl)acetic acid]	< 1000
NCc1cccc(-c2cc(C(=O)Nc3ccccc3CC(=O)O)c3nccn3n2)c1 [Compound 27f, 2-(2-(6-(3-(aminomethyl)phenyl)imidazo[1,2-b]pyridazine-8-carboxamido)phenyl)acetic acid]	> 10000
NCc1cc(-c2cc(COc3cc(F)ccc3CC(=O)O)cc3c(C(F)(F)F)coc23)ccn1 [Compound 491b, 2-(2-((7-(2-(aminomethyl)pyridin-4-yl)-3-(trifluoromethyl)benzofuran-5-yl)methoxy)-4-fluorophenyl)acetic acid]	< 1000
NCc1cccc(-c2cc(COc3ccccc3CC(=O)O)nc3[nH]ccc23)c1 [Compound 52a, 2-(2-((4-(3-(aminomethyl)phenyl)-1H-pyrrolo[2,3-b]pyridin-6-yl)methoxy)phenyl)acetic acid]	< 1000
Cc1ccc(CC(=O)O)c(NC(=O)c2nc(-c3cccc(CN)c3F)nn3cccc23)c1 [Compound 51c, 2-(2-(2-(3-(aminomethyl)-2-fluorophenyl)pyrrolo[2,1-f][1,2,4]triazine-4-carboxamido)-4-methylphenyl)acetic acid]	< 1000
NCc1cccc(-c2cc(COc3ccccc3CC(=O)O)cc3sc(Cl)cc23)c1F [Compound 337b, 2-(2-((4-(3-(aminomethyl)-2-fluorophenyl)-2-chlorobenzo[b]thiophen-6-yl)methoxy)phenyl)acetic acid]	< 1000
NCc1cccc(-c2cc(COc3ccccc3CC(=O)O)nc3[nH]ccc23)c1F [Compound 86b, 2-(2-((4-(3-(aminomethyl)-2-fluorophenyl)-1H-pyrrolo[2,3-b]pyridin-6-yl)methoxy)phenyl)acetic acid]	< 1000
NCc1cncc(-c2cc(COc3ccccc3CC(=O)O)cc3ccoc23)c1 [Compound 106c, 2-(2-((7-(5-(aminomethyl)pyridin-3-yl)benzofuran-5-yl)methoxy)phenyl)acetic acid]	1000 to 10000
COc1ccc(CC(=O)O)c(OCc2cc(-c3cccc(CN)c3)c3occc3c2F)c1 [Compound 384c, 2-(2-((7-(3-(aminomethyl)phenyl)-4-fluorobenzofuran-5-yl)methoxy)-4-methoxyphenyl)acetic acid]	< 1000
